Reference: PubChem BioAssay AID1963841 (Molecular Pharmacology Branch, DTP, NCI, 2024)

Test system: 439559-082-T-J2-PDC spheroid viability
Test: Anticancer human tumor 439559-082-T-J2-PDC patient-derived colon adenocarcinoma cell line growth inhibition [POLQ]
Conditions: spheroids with HUVEC and MSC; for IC50: curve of first compound; for viability, T/C: stronger effect = lower value
How it was run: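 PDC + HUVEC + MSC complex spheroids; POLQ inhibitors ± partner drugs; top conc. at/near clinical Cmax, else 10 microM (SN-38 1 microM), half-log dilutions; 37 degrees C, 5% CO2.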

[1] = second compound 0.0316 µM, first compound 0.0316 µM
[2] = second compound 0.0316 µM, first compound 0.1 µM
[3] = second compound 0.0316 µM, first compound 0.316 µM
[4] = second compound 0.0316 µM, first compound 1 µM
[5] = second compound 0.0316 µM, first compound 3.16 µM
[6] = second compound 0.0316 µM, first compound 10 µM
[7] = second compound 0.1 µM, first compound 0.0316 µM
[8] = second compound 0.1 µM, first compound 0.1 µM
[9] = second compound 0.1 µM, first compound 0.316 µM
[10] = second compound 0.1 µM, first compound 1 µM
[11] = second compound 0.1 µM, first compound 3.16 µM
[12] = second compound 0.1 µM, first compound 10 µM
[13] = second compound 0.316 µM, first compound 0.0316 µM
[14] = second compound 0.316 µM, first compound 0.1 µM
[15] = second compound 0.316 µM, first compound 0.316 µM
[16] = second compound 0.316 µM, first compound 1 µM
[17] = second compound 0.316 µM, first compound 3.16 µM
[18] = second compound 0.316 µM, first compound 10 µM
[19] = second compound 1 µM, first compound 0.0316 µM
[20] = second compound 1 µM, first compound 0.1 µM
[21] = second compound 1 µM, first compound 0.316 µM
[22] = second compound 1 µM, first compound 1 µM
[23] = second compound 1 µM, first compound 3.16 µM
[24] = second compound 1 µM, first compound 10 µM
[25] = second compound 3.16 µM, first compound 0.0316 µM
[26] = second compound 3.16 µM, first compound 0.1 µM
[27] = second compound 3.16 µM, first compound 0.316 µM
[28] = second compound 3.16 µM, first compound 1 µM
[29] = second compound 3.16 µM, first compound 3.16 µM
[30] = second compound 3.16 µM, first compound 10 µM
[31] = second compound 10 µM, first compound 0.0316 µM
[32] = second compound 10 µM, first compound 0.1 µM
[33] = second compound 10 µM, first compound 0.316 µM
[34] = second compound 10 µM, first compound 1 µM
[35] = second compound 10 µM, first compound 3.16 µM
[36] = second compound 10 µM, first compound 10 µM
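Also: spheroids exposed to compounds for seven days before readout.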
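For viability, T/C in this document: 100% = DMSO vehicle control viability.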

In the case of `COc1cccc2c1C(=O)c1c(O)c3c(c(O)c1C2=O)CC(O)(C(=O)CO)CC3OC1CC(N)C(O)C(C)O1` (centres undefined) + Nc1ccc(C#CCN(C(=O)Cc2ncc(C(F)(F)F)cc2C(F)(F)F)c2ccc(F)cc2)nn1, the IC50 (second compound 0.0316 µM) is reported as greater than 10000 nM, the IC50 (second compound 0.1 µM) is reported as greater than 10000 nM and the IC50 (second compound 0.316 µM) is reported as greater than 10000 nM. It also gave an IC50 (second compound 1 µM) greater than 10000 nM, an IC50 (second compound 3.16 µM) greater than 10000 nM and an IC50 (second compound 10 µM) of 7090 nM. For the same compound, the viability, T/C [1] was 90.2%, the viability, T/C [2] was 83.1% and the viability, T/C [3] was 79.2%. For the same compound, the viability, T/C [4] was 67.8%, the viability, T/C [5] was 60.7% and the viability, T/C [6] was 60.5%. The viability, T/C [7] was 99.9%, the viability, T/C [8] was 98.4% and the viability, T/C [9] was 79.8%. The viability, T/C [10] was 66.5%, the viability, T/C [11] was 58.9% and the viability, T/C [12] was 65.1%. For the same compound, the viability, T/C [13] was 94.7%, the viability, T/C [14] was 82.5% and the viability, T/C [15] was 78.7%. For the same compound, the viability, T/C [16] was 59.3%, the viability, T/C [17] was 58.1% and the viability, T/C [18] was 66.7%. For the same compound, the viability, T/C [19] was 103%, the viability, T/C [20] was 85.5% and the viability, T/C [21] was 74.6%. It also gave a viability, T/C [22] of 64%, a viability, T/C [23] of 57.2% and a viability, T/C [24] of 55.8%. It also gave a viability, T/C [25] of 87.5%, a viability, T/C [26] of 83.2% and a viability, T/C [27] of 61.2%. For the same compound, the viability, T/C [28] was 62.4%, the viability, T/C [29] was 67.2% and the viability, T/C [30] was 57.7%. For the same compound, the viability, T/C [31] was 78.8%, the viability, T/C [32] was 74.2% and the viability, T/C [33] was 70.8%. The viability, T/C [34] was 59.7%, the viability, T/C [35] was 62.6% and the viability, T/C [36] was 45.1%.

In the case of `Nc1ccn(C2OC(CO)C(O)C2(F)F)c(=O)n1` (centres undefined) + COC1C(OC(N)=O)C(O)C(Oc2ccc3c(O)c(NC(=O)c4ccc(O)c(CC=C(C)C)c4)c(=O)oc3c2C)OC1(C)C, the IC50 (second compound 0.0316 µM) is reported as 488 nM, the IC50 (second compound 0.1 µM) is reported as 477 nM and the IC50 (second compound 0.316 µM) is reported as 422 nM. For the same compound, the IC50 (second compound 1 µM) was 395 nM, the IC50 (second compound 3.16 µM) was 450 nM and the IC50 (second compound 10 µM) was 411 nM. The viability, T/C [1] was 81.3%, the viability, T/C [2] was 74.4% and the viability, T/C [3] was 55.7%. It also gave a viability, T/C [4] of 39.5%, a viability, T/C [5] of 29.8% and a viability, T/C [6] of 25.6%. For the same compound, the viability, T/C [7] was 82.2%, the viability, T/C [8] was 74.3% and the viability, T/C [9] was 54.4%. For the same compound, the viability, T/C [10] was 39.4%, the viability, T/C [11] was 33% and the viability, T/C [12] was 25.3%. For the same compound, the viability, T/C [13] was 86.1%, the viability, T/C [14] was 76.2% and the viability, T/C [15] was 52.8%. The viability, T/C [16] was 37.5%, the viability, T/C [17] was 33% and the viability, T/C [18] was 25.6%. For the same compound, the viability, T/C [19] was 81.2%, the viability, T/C [20] was 77.7% and the viability, T/C [21] was 49.2%. The viability, T/C [22] was 39.5%, the viability, T/C [23] was 32.6% and the viability, T/C [24] was 25%. It also gave a viability, T/C [25] of 84.5%, a viability, T/C [26] of 73.8% and a viability, T/C [27] of 54.7%. The viability, T/C [28] was 38.5%, the viability, T/C [29] was 31.2% and the viability, T/C [30] was 26.7%. For the same compound, the viability, T/C [31] was 83.1%, the viability, T/C [32] was 70% and the viability, T/C [33] was 53%. The viability, T/C [34] was 38.8%, the viability, T/C [35] was 31.6% and the viability, T/C [36] was 26%.
